Laboratory results from US6548715B1, “Structural analogues of vitamin D” (Laboratoire Theramex S.A., priority 1993, dated 2003).

Experiments:
MCF-7 cells = assay: MCF-7 breast cancer cell proliferation ([3H]thymidine incorporation); assay type: cell-based; conditions: % of the activity of 1α,25-(OH)2D3 at 50% of its activity (B50); human breast cancer cells
Method: (§1) HL-60 cells were seeded at 1.2×10^5 cells/ml and 1α,25-(OH)2D3 or its anologs were added in ethanol (final concentration <0.2%) in RPMI 1640 medium supplemented with 10% heat-inactivated fetal calf serum (FCS) for 4 d at 37° C. Cells were then assayed for maturation by NBT reduction assay as described (22) using a hemacytometer, or for proliferation by cell counting and [^3H] thymidine incorporation. MG 63 cells, seeded at 5×10^3 cells/ml in 96 well flat bottomed culture plates (Falcon, Becton Dickinson, N.J.) in a volume of 0.2 ml of DMEM and 2% FCS, were incubated with 1α,25-(OH)2D3 or its analogues for 72 h. Osteocalcin was then measured in the culture medium using a homologous human osteocalcin RIA (39). Breast carcinoma cells (MCF-7 or GR) were grown in DMEM/nut.mix F-12 (HAM) medium supplemented with 10% FCS. Cells (5000/Well) were incubated during 24 h in 96 well tissue culture plates (Falcon 3072) followed by a 72 h incubation with/without 1α,25-(OH)2D3 or analogues. The cells were then incubated with [^3H]thymidine (1 μCi/well) for 4 h and harvested thereafter in NaOH (0.1 M) and the radioactivity counted. The protein content of the cells was measured by the Pierce BCA protein assay (Rockford, Ill.).

HL-60 cells = assay: HL-60 cell differentiation (NBT reduction); assay type: cell-based; conditions: % of the activity of 1α,25-(OH)2D3 at 50% of its activity (B50); human leukemia cells
Method: as §1

MG-63 cells = assay: MG-63 osteosarcoma cells, osteocalcin secretion; assay type: cell-based; conditions: % of the activity of 1α,25-(OH)2D3 at 50% of its activity (B50); human osteosarcoma cells
Method: as §1

[1] = target: T1, human DBP (vitamin D binding protein) (Homo sapiens, UniProt P02774); assay: Relative affinity for purified human vitamin D-binding protein (hDBP); conditions: % of the activity of 1α,25-(OH)2D3 at 50% of its activity (B50)
T1 sequence (P02774 17-474): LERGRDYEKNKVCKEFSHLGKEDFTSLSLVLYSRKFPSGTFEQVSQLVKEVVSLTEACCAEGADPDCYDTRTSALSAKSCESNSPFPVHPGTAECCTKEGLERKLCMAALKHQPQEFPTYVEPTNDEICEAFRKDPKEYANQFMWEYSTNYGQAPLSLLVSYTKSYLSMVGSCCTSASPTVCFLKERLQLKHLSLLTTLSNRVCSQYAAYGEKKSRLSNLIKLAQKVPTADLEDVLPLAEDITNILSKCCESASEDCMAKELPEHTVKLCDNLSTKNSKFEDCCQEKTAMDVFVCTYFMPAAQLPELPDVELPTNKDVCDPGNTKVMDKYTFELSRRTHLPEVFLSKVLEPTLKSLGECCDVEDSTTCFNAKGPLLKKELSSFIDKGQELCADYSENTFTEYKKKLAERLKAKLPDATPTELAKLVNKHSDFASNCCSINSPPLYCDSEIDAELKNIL

vitamin D receptor = target: T2, vitamin D receptor (Sus scrofa, UniProt A3RGC1); conditions: % of the activity of 1α,25-(OH)2D3 at 50% of its activity (B50); 1α,25-(OH)2D3 assigned 100%
T2 sequence (A3RGC1 1-427): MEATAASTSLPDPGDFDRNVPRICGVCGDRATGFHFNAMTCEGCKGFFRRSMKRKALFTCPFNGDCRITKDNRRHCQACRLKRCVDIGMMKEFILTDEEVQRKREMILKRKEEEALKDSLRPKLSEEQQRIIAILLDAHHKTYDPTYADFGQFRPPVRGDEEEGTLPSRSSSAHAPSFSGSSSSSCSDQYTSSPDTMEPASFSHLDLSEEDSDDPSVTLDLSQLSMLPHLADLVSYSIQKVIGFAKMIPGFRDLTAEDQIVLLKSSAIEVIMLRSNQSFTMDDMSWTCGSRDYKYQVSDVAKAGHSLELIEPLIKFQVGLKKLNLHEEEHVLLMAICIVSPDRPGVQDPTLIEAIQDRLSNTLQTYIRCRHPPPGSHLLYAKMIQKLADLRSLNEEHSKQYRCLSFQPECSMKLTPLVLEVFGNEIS

[2] = tested on: vitamin D-deficient chicks; assay: Calcemic effect in vitamin D-deficient chicks (serum calcium); assay type: in vivo, chick; conditions: % of the activity of 1α,25-(OH)2D3 at 50% of its activity (B50); vitamin D-deficient chicks injected 10 consecutive days
Method: The antirachitic activity of the analogues was tested in 3 weeks old vitamin D-deficient chicks injected for 10 consecutive days with 1α,25-(OH)2D3 or its analogues (22,23). Serum calcium (by atomic absorptiometry) and osteocalcin (by specific RIA), duodenal calbindin D-28K (by RIA) and bone calcium content were measured. The hypercalcemic effect of the most interesting anologues was also tested in vitamin D-replete normal NMRI mice by daily sc injection of 1α,25-(OH)2D3, its analogues or the solvent for 7 consecutive days, using serum, bone and urinary calcium excretion and serum osteocalcin (by specific mouse RIA) as parameters (40).

[3] = tested on: human normal keratinocytes; assay: Human keratinocyte proliferation ([3H]thymidine incorporation); assay type: cell-based; conditions: % of the activity of 1α,25-(OH)2D3 at 50% of its activity (B50)
Method: to evaluate the effects on cell proliferation of non-malignant cells and especially to evaluate their potential for use for dermatological disorders, the new compounds were tested in cultures of human normal keratinocytes.
Human skin keratinocytes were isolated and cultured using a modification of the method of Kitano and Okada (38).
Briefly, the skin from biopsies of patients with breast tumors, was cutted into pieces measuring 3-5 mm and soaked overnight at 4° C. in a solution of dispase (20 Boehringer units/ml). The epidermis was peeled from the dermis, washed with calcium- and magnesium-free phosphate buffered saline and incubated and shaked in a 0.25% trypsin solution for 10 min at room temperature. The reaction was then stopped by addition of PBS containing 10% FCS. The cells were collected after centrifugation at 4° C. for 10 min at 800 rpm. After an additional washing with PBS, the pellet was suspended in culture medium into 25 cm^2 primaria flasks from Becton Dickinson. The keratinocytes were cultivated at 37° C. in an atmosphere of 5% CO2 in air. A few hours later, the medium was replaced by new one. The medium [Keratinocyte Medium from Gibco containing Epidermal Growth Factor (5 ng/ml), Bovine Pituitary Extract (35-50 μg/ml) and antibiotics] was renewed every other day until confluency.
Keratinocytes were cultured in 96-well plate and, after 24 hours, were treated with various concentrations of vitamin D analogues, followed by pulse labelling with 1 μCi of [^3H]thymidine for 3 hours. Cultures were washed 3 times with PBS and twice with 10% (v/v) ice cold trichloroacetic acid. Cells were solubilized with 1 M NaOH and radioactivity was counted in a scintillation counter.

| Compound | Cell differentation/cell proliferation MCF-7 (MCF-7 cells) [%] | Cell differentation/cell proliferation HL-60 (HL-60 cells) [%] | Cell differentation/cell proliferation MG-63 (MG-63 cells) [%] | Affinity for human DBP [1] [%] | Affinity for pig receptor (vitamin D receptor) [%] | Ca serum chick [2] [%] | Cell differentation/cell proliferation keratinocytes [3] [%] |
| --- | --- | --- | --- | --- | --- | --- | --- |
| CC(CCCC(C)(C)O)C(C)C1(C)CCCC(=CC=C2CC(O)CC(O)C2)C1 (stereo not drawn) [Compound 8] | 3000 | >1000 | 300 | 3 | 45 | <0.1 | – |
| CC(CC#CC(C)(C)O)C1CCC2C(=CC=C3CC(O)CC(O)C3)CCCC21C (stereo not drawn) [Compound 44] | 1000 | 320 | 150 | 2 | 26 | 0.1 | 700 |
| C=C1/C(=C\C=C2/CCC[C@](C)([C@H](C)[C@H](C)CCCC(C)(C)O)C2)C[C@@H](O)C[C@@H]1O [Compound 7] | 6000 | 1000 | 700 | 20 | 60 | 5 | – |
| CCC(O)(C#CCC(C)C1CCC2C(=CC=C3CC(O)CC(O)C3)CCCC21C)CC (stereo not drawn) [Compound 48] | 1500 | 2200 | 800 | 0.3 | 40 | 1 | 350 |
| CCC(O)(C=CC=CC(C)C1CCC2C(=CC=C3CC(O)CC(O)C3)CCCC21C)CC (stereo not drawn) [Compound 50] | 100 | 40 | – | 0 | 9 | 0.1 | 60 |
| C=C1C(=CC=C2CCCC3C2CCC3C(C)CCCC(C)(C)O)CC(O)CC1O (stereo not drawn) [Compound 3] | – | 720 | 75 | 10 | 100 | – | – |
| C=C1C(=CC=CCC2(C)CCC(CCCCC(O)(CC)CC)C2(C)C)CC(O)CC1O (stereo not drawn) [Compound 20] | – | 75 | 30 | 8 | 28 | – | – |
| CC(CCCC(C)(C)O)C1CCC2C(=CC=C3CC(O)CC(O)C3)CCCC21C (stereo not drawn) [Compound 43] | 20 | 40 | 100 | 7 | 25 | 0.1 | 100 |
| CC(CCCCC(C)(C)O)C1CCC2C(=CC=C3CC(O)CC(O)C3)CCCC21C (stereo not drawn) [Compound 54] | – | 30 | 10 | 1 | 20 | 0.4 | – |
| C=C1C(=CC=CCC2(C)CCC(OCCC(O)(CC)CC)C2(C)C)CC(O)CC1O (stereo not drawn) [Compound 18] | 40 | 10 | – | 0 | 4 | <0.1 | 35 |
| C=C1/C(=C\C=C2/CCC[C@](C)([C@H](C)[C@H](C)CC[C@@H](O)C(C)C)C2)C[C@@H](O)C[C@@H]1O [Compound 5] | 6000 | 4000 | 1000 | 10 | 80 | 9 | 5000 |
| CC(CCCC(C)(C)O)C1CCC2C(=CC=C3CC(O)CC(O)C3)CCC(O)C21 (stereo not drawn) [Compound 2] | – | 75 | 4.5 | 0 | 0 | – | – |
| C=C1C(=CC=CCC2(C)CCC(CCCCC(C)(C)O)C2(C)C)CC(O)CC1O (stereo not drawn) [Compound 19] | – | 10 | 30 | 50 | 13 | – | – |
| CC(CC#CC1(C)CO1)C1CCC2C(=CC=C3CC(O)CC(O)C3)CCCC21C (mixture of isomers) [Compound 45] | 20 | 80 | 10 | 1.5 | 2.5 | 1 | – |
| CCC(O)(CC)CCCCC(C)C1CCC2C(=CC=C3CC(O)CC(O)C3)CCCC21C (stereo not drawn) [Compound 55] | – | 65 | 3 | 0 | 30 | 0.3 | – |
| C=C1/C(=C\C=C\[C@@H]2CC[C@](C)(CCCCC(O)(CC)CC)C2(C)C)C[C@@H](O)C[C@@H]1O [Compound 38] | – | 100 | – | 2 | 80 | 2 | – |
| C=C1C(=CC=CC2CCCC(C(C)CCCC(C)(C)O)C2(C)C)CC(O)CC1O (stereo not drawn) [Compound 56] | – | 100 | – | 70 | – | – | – |
| C=C1C(=CC=CCC2(C)CCC(CCCC(O)(CC)CC)C2(C)C)CC(O)CC1O (stereo not drawn) [Compound 16] | – | 12 | 10 | 0 | 15 | 0.2 | 30 |
